Assay results as given in patent publication US6090785A, “Substituted N-carboxyalkylpeptidyl derivatives as antidegenerative agents” (Merck & Co., Inc., priority 1992, dated 2000).

Key:
Format in all cases: biochemical
stromelysin = stromelysin (Homo sapiens, UniProt P08254); assay: Stromelysin inhibition assay (HPLC/fluorometric determination of remaining peptide substrate); conditions: SLN = stromelysin; substrate 5 μM, enzyme 1.5 nM
Procedure: Briefly the assay may be carried out by incubating for four hours the inhibitor in dimethyl sulfoxide (DMSO) and 25 μl of 0.3726 μg/ml stromelysin, then adding 60 μl of 11.24 μM substrate and incubating the resulting mixture for 18 hours. The final concentrations of the substrate is 5 μM and of the enzyme 1.5 nM. At this time 50 μl of 0.3 M H3 PO4 is added and a portion of the mixture injected onto an HPLC column and the remaining substrate determined by fluorometric detection. The area of the substrate is quantitated and is plotted as a function of the inhibitor concentration. The Ki is calculated using the following equation: [formula] where area inhibited and ^area control are integrated HPLC areas for substrate for inhibited and uninhibited reactions, respectively; [I] is the inhibitor concentration; [S] is the substrate concentration.

collagenase = biological target: T1, collagenase (Homo sapiens, UniProt P03956); assay: Collagenase inhibition assay with fluorogenic Dnp-peptide substrate (method of Stack et al); conditions: CGase = collagenase
T1 sequence (P03956 100-469): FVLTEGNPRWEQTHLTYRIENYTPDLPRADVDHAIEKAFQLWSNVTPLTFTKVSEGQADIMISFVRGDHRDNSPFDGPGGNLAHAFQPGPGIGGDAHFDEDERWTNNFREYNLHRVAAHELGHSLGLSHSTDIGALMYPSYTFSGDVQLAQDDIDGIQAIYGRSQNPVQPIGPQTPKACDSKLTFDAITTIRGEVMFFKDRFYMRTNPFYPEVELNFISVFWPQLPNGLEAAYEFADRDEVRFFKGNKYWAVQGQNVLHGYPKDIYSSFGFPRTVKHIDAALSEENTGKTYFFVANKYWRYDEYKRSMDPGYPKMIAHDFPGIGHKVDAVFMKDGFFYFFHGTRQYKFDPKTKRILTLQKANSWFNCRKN
Text: (§1) The capacity of representative compounds of formula I to inhibit collagenase and gelatinase lysis may be determined using the method of M. S. Stack et al, Biol. Chem 264, 4277 (1989). In such assay, a fluorogenic substrate Dnp-Pro-Leu-Gly-Leu-Trp-Ala-D-Arg.(SEQ ID NO:2) where the "Dnp" designation indicates a "dinitrophenyl" group and this group is indicated by "Xaa" in the Sequence Listing. is used. The tryptophan fluorescence is efficiently quenched by the dinitrophenyl group but when it is hydrolyzed by collagenase or gelatinase, there is increased fluorescence with cleavage occurring at the Gly-Leu bond.
(§2) Assays were performed in 0.05M Tris, 5 mM CaCl2, 0.2M NaCl up to 20% Me2 SO, pH 7.7 at either […] or 37° C. using peptide concentrations of 2.5 to 40 μM.
(§3) After addition of enzyme to initiate the reaction, the initial rate of substrate hydrolysis is determined by monitoring the increase in fluorescence emission at 346 nm. using an excitation wavelength of 280 nm. To determine the inhibitory activity the hydrolysis is measured fluorimetrically in the presence of increasing concentrations of the inhibitor and the Ki is determined.

gelatinase = assay: Gelatinase inhibition assay with fluorogenic Dnp-peptide substrate (method of Stack et al); conditions: Gel = gelatinase
Text: as §1, §2, §3

Sequence of stromelysin (P08254 100-477): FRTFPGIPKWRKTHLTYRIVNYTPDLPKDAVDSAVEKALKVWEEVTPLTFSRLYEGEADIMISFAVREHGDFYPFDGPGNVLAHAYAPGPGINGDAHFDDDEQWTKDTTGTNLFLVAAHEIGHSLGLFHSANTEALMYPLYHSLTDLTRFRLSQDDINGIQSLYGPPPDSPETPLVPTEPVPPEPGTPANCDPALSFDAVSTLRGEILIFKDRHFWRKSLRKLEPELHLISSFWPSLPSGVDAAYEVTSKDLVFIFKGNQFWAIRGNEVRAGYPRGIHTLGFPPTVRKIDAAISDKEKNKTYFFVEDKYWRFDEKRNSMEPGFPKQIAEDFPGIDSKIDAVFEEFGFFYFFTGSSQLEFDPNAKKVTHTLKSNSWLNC

Row | SMILES | Ki (stromelysin) | Ki (collagenase) | Ki (gelatinase)
1 | CC(C)C[C@H](NC(=O)[C@H](CCCCCCCCCN)N[C@H](C)C(=O)O)C(=O)Nc1ccccc1 [Compound 9a] | 0.24 µM | > 10 µM | 0.5 µM
2 | CCCCCCCC[C@H](N[C@H](C)C(=O)O)C(=O)N[C@@H](CC(C)C)C(=O)Nc1ccccc1 [Compound 9b] | 0.57 µM | > 10 µM | 0.34 µM
3 | CCCCCCCC[C@H](N[C@H](C)C(=O)O)C(=O)N[C@@H](CCCNC(=N)N)C(=O)Nc1ccccc1 [Compound 9c] | 1.6 µM |  | 0.12 µM
4 | C[C@@H](N[C@@H](CCCCCCCCCN)C(=O)N[C@@H](CCCNC(=N)N)C(=O)Nc1ccccc1)C(=O)O [Compound 9d] | 0.37 µM |  | 0.11 µM
5 | CCCCCCCCCC[C@H](N[C@H](C)C(=O)O)C(=O)N[C@@H](CC(C)C)C(=O)Nc1ccccc1 [Compound 9e] | 0.85 µM |  | 0.56 µM
